Earlier results in patent US12582389B2, “Urine preservative composition, device for sampling urine and method for manufacturing a urine sampling device” (VACUTEST KIMA S.R.L., priority 2020, dated 2026).

What was measured:
Klebsiella sp. = conditions: boric acid 1.5-2% W/V with respect to the sample volume
[1] = urine samples with boric acid

Structure (SMILES): OB(O)O [boric acid]
- effect on the most sensitive Gram-negative bacterial strains (Klebsiella sp.): death
- pH of urine samples [1]: ~5
